The text below walks through data of PMC9969764 (ChemMedChem, 2021).

Molecules are shown by their SMILES.

One test deals with RET kinase (Homo sapiens, UniProt P07949). As to the kind of experiment: RET kinase biochemical assay. As to conditions: read-out: RET (IC50), mean of at least n = 3.
Another test concerns A549 cells. As to the kind of experiment: Cell viability, cytotoxic control. The test is classed as cell-based. As to conditions: read-out: A549 (EC50).
A further test has as its target TRKA (Homo sapiens, UniProt P04629). As to the kind of experiment: TRKA kinase biochemical assay. As to conditions: read-out: TRKA (IC50), mean of at least n = 3.
The next test concerns KM-12 cells. As to the kind of experiment: Cell viability, TRKA-driven matched control. It counts as cell-based. As to conditions: read-out: KM-12 (EC50).
Test [1] has as its system LC-2/ad cells (RET-CCDC6 fusion-driven NSCLC). Briefly: Cell viability, RET-driven cell line. It counts as cell-based. As to conditions: read-out: LC-2/ad (EC50).

RET kinase, sequence (P07949 29-1114): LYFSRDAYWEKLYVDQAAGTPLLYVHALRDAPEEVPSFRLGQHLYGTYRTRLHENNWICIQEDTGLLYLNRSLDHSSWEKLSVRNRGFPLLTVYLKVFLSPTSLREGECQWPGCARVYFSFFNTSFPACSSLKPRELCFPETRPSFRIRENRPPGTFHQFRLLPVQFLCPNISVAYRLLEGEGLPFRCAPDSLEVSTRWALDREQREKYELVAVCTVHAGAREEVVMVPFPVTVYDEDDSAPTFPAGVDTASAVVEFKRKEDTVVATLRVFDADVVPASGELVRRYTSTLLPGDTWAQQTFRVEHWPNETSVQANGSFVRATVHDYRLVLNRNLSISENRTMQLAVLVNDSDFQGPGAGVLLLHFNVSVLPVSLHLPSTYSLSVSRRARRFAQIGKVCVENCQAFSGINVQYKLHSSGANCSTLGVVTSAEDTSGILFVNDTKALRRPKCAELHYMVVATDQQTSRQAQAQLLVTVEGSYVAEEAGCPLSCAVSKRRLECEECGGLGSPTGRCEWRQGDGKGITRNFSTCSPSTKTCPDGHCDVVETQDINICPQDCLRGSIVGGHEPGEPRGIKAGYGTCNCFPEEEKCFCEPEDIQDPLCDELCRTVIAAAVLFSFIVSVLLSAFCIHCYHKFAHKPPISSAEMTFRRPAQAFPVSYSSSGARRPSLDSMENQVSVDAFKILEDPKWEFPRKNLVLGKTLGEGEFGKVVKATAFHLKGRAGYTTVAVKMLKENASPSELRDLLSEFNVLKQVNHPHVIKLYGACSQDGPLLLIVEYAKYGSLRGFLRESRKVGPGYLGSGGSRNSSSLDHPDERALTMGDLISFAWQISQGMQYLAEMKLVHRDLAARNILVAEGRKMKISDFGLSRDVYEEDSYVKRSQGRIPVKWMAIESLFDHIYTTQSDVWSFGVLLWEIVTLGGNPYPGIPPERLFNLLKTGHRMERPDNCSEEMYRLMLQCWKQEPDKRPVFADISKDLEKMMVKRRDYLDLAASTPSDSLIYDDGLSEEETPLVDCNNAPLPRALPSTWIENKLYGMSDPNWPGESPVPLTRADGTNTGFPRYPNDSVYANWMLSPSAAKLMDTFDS
TRKA, sequence (P04629 33-796): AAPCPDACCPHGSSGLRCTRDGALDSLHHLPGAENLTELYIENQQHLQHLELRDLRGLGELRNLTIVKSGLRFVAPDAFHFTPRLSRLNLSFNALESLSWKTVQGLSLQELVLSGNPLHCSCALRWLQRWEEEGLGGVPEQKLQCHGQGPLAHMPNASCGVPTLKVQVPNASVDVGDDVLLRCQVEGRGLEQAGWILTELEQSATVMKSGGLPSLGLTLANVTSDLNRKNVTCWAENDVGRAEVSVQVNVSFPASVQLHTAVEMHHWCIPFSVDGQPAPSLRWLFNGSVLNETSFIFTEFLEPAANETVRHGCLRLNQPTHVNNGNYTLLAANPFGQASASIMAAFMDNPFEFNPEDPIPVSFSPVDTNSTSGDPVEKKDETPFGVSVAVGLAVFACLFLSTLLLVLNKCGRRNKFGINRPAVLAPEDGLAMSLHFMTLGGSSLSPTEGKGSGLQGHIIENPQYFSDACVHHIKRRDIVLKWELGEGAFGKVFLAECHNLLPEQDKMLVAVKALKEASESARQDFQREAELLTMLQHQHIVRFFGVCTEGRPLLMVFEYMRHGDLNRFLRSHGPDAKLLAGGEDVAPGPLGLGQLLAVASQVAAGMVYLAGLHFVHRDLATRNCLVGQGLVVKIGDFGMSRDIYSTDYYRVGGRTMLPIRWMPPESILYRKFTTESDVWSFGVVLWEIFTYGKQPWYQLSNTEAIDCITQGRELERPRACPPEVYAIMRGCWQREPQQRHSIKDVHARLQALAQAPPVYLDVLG

Turning to `Cn1nc(-c2ccccc2)c2c(N)ncnc21` [4a], the half-maximal inhibitory concentration (IC50) at RET kinase is 6.82 ± 2.22 µM.
For the molecule `Nc1ncnc2[nH]ncc12` [fragment 1, pyrazoloadenine], the concentration for half-maximal inhibition (IC50) was 9.2 µM at RET kinase and 57.1 µM on TRKA. Besides, the EC50 in the test on A549 cells was 3.02 µM; with KM-12 cells it was 1.73 µM; in test [1] it was 1.47 µM.

As usually defined, the IC50 is the concentration needed to halve the response being measured.
